Experimental data published in ChEMBL document CHEMBL1134175, “Nipecotic and iso-nipecotic amides as potent and selective somatostatin subtype-2 receptor agonists” (Bioorg Med Chem Lett, 2001).

What was measured:
[1] = target: T1, Somatostatin receptor type 2 (Homo sapiens, UniProt P30874); experiment: Binding affinity to human somatostatin 2 receptor
[2] = target: T1, Somatostatin receptor type 2; experiment: Binding affinity to Somatostatin receptor type 2 was determined
[3] = Ratio of binding affinity of h5 to that of binding affinity of h2
[4] = target: Somatostatin receptor type 5 (Homo sapiens, UniProt P35346); experiment: Binding affinity to hsst5 was determined
[5] = target: Somatostatin receptor type 3 (Homo sapiens, UniProt P32745); experiment: Binding affinity to hsst3 was determined
Chain of Somatostatin receptor type 3 (P32745 whole entry): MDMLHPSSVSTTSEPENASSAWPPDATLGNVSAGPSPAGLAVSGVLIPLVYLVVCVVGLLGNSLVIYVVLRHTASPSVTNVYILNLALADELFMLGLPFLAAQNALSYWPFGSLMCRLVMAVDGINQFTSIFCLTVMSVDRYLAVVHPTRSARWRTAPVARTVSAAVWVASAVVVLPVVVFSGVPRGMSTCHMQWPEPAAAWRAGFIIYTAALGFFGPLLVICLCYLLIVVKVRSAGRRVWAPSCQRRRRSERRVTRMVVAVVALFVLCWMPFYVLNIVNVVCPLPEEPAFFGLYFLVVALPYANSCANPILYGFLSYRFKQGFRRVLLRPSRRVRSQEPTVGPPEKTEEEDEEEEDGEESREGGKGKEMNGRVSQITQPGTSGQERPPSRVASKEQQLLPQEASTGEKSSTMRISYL

Chain of Somatostatin receptor type 5 (P35346 whole entry): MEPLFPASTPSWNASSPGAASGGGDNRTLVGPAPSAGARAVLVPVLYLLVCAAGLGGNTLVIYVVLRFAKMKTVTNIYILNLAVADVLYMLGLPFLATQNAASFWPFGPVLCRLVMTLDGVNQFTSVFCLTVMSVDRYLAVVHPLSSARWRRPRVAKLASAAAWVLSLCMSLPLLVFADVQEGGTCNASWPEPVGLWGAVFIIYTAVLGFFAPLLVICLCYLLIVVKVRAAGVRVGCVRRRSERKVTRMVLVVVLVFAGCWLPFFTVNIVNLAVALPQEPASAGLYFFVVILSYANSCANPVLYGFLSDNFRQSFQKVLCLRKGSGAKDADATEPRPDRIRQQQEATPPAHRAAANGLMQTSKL
T1 sequence (P30874 whole entry): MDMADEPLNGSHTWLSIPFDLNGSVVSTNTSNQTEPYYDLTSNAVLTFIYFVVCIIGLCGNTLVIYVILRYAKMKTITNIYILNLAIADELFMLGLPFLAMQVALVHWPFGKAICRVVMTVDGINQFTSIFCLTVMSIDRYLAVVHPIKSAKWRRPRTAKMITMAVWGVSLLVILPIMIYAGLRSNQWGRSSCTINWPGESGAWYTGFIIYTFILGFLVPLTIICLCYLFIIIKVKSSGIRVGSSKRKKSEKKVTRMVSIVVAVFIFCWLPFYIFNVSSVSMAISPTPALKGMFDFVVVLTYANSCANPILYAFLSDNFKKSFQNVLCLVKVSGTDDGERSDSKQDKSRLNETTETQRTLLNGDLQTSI

SMILES	Ki [1] [µM]	further results
C[C@@H](c1c[nH]c2ccccc12)C(NC(=O)C1CCCN(C(=O)c2cccnc2)C1)C(=O)N[C@@H](CCCCN)C(=O)OC(C)(C)C (stereo not given in full)	0.085	
C[C@@H](c1c[nH]c2ccccc12)C(NC(=O)C1CCCNC1)C(=O)N[C@@H](CCCCN)C(=O)OC(C)(C)C (stereo not given in full)	0.178	
CC(C)S(=O)(=O)N1CCC(C(=O)NC(C(=O)N[C@@H](CCCCN)C(=O)OC(C)(C)C)[C@@H](C)c2c[nH]c3ccccc23)CC1 (stereo not given in full)		Ki [2]: 0.12 µM; Ratio [3]: > 83; Ki [4]: > 10 µM; Ki [5]: 3.75 µM
C[C@@H](c1c[nH]c2ccccc12)C(NC(=O)C1CCN(Cc2ccccc2)CC1)C(=O)N[C@@H](CCCCN)C(=O)OC(C)(C)C (stereo not given in full)		Ki [2]: 0.0025 µM; Ratio [3]: 133; Ki [4]: 0.333 µM
COC(=O)c1cccc(CN2CCCC(C(=O)NC(C(=O)N[C@@H](CCCCN)C(=O)OC(C)(C)C)[C@@H](C)c3c[nH]c4ccccc34)C2)c1 (stereo not given in full)	0.011	
C[C@@H](c1c[nH]c2ccccc12)C(NC(=O)C1CCCN(C(=O)c2ccccc2)C1)C(=O)N[C@@H](CCCCN)C(=O)OC(C)(C)C (stereo not given in full)	0.01	
C[C@@H](c1c[nH]c2ccccc12)C(NC(=O)C1CCCN(C(=O)c2ccc3[nH]cnc3c2)C1)C(=O)N[C@@H](CCCCN)C(=O)OC(C)(C)C (stereo not given in full)	0.085	
C[C@@H](c1c[nH]c2ccccc12)C(NC(=O)C1CCCN(C(c2ccccc2)c2ccccc2)C1)C(=O)N[C@@H](CCCCN)C(=O)OC(C)(C)C (stereo not given in full)	0.031	
C[C@@H](c1c[nH]c2ccccc12)C(NC(=O)C1CCCN(Cc2ccc3c(c2Cl)OCO3)C1)C(=O)N[C@@H](CCCCN)C(=O)OC(C)(C)C (stereo not given in full)	0.012	
CC(=O)Nc1cccc(C(=O)N2CCCC(C(=O)NC(C(=O)N[C@@H](CCCCN)C(=O)OC(C)(C)C)[C@@H](C)c3c[nH]c4ccccc34)C2)c1 (stereo not given in full)	0.047	
C[C@@H](c1c[nH]c2ccccc12)C(NC(=O)C1CCCN(Cc2ccccc2-c2ccccc2)C1)C(=O)N[C@@H](CCCCN)C(=O)OC(C)(C)C (stereo not given in full)	0.021	
C[C@@H](c1c[nH]c2ccccc12)C(NC(=O)C1CCCN(C(=O)C(c2ccccc2)c2ccccc2)C1)C(=O)N[C@@H](CCCCN)C(=O)OC(C)(C)C (stereo not given in full)	0.005	
CC(C)NC(=O)N1CCCC(C(=O)NC(C(=O)N[C@@H](CCCCN)C(=O)OC(C)(C)C)[C@@H](C)c2c[nH]c3ccccc23)C1 (stereo not given in full)	0.095	
CC(C)C(=O)N1CCC(C(=O)NC(C(=O)N[C@@H](CCCCN)C(=O)OC(C)(C)C)[C@@H](C)c2c[nH]c3ccccc23)CC1 (stereo not given in full)		Ki [2]: 0.015 µM; Ratio [3]: 190; Ki [4]: 2.86 µM; Ki [5]: 5.25 µM
C[C@@H](c1c[nH]c2ccccc12)C(NC(=O)C1CCCN(C(=O)Cc2cc(F)cc(F)c2)C1)C(=O)N[C@@H](CCCCN)C(=O)OC(C)(C)C (stereo not given in full)	0.0023	
C[C@@H](c1c[nH]c2ccccc12)C(NC(=O)C1CCCN(C(=O)C(O)(c2ccccc2)c2ccccc2)C1)C(=O)N[C@@H](CCCCN)C(=O)OC(C)(C)C (stereo not given in full)	0.0028	
C[C@@H](c1c[nH]c2ccccc12)C(NC(=O)C1CCN(C(=O)c2ccccc2)CC1)C(=O)N[C@@H](CCCCN)C(=O)OC(C)(C)C (stereo not given in full)		Ki [2]: 0.0005 µM; Ratio [3]: 832; Ki [4]: 0.416 µM; Ki [5]: 2.66 µM

SMILES	Ki [1] [µM]	further results
CC(C)CC(=O)N1CCCC(C(=O)NC(C(=O)N[C@@H](CCCCN)C(=O)OC(C)(C)C)[C@@H](C)c2c[nH]c3ccccc23)C1 (stereo not given in full)	0.023	
CC(C)S(=O)(=O)N1CCCC(C(=O)NC(C(=O)N[C@@H](CCCCN)C(=O)OC(C)(C)C)[C@@H](C)c2c[nH]c3ccccc23)C1 (stereo not given in full)	0.035	
C[C@@H](c1c[nH]c2ccccc12)C(NC(=O)C1CCCN(Cc2cccc(F)c2)C1)C(=O)N[C@@H](CCCCN)C(=O)OC(C)(C)C (stereo not given in full)	0.005	
C[C@@H](c1c[nH]c2ccccc12)C(NC(=O)C1CCCN(C(=O)Nc2ccccc2)C1)C(=O)N[C@@H](CCCCN)C(=O)OC(C)(C)C (stereo not given in full)	0.011	
C[C@@H](c1c[nH]c2ccccc12)C(NC(=O)C1CCCN(C(=O)NC2CCCCC2)C1)C(=O)N[C@@H](CCCCN)C(=O)OC(C)(C)C (stereo not given in full)	0.0072	
C[C@@H](c1c[nH]c2ccccc12)C(NC(=O)C1CCCN(C(=O)Cc2ccc3c(c2)OCO3)C1)C(=O)N[C@@H](CCCCN)C(=O)OC(C)(C)C (stereo not given in full)	0.01	
C[C@@H](c1c[nH]c2ccccc12)C(NC(=O)C1CCCN(Cc2cccc(F)c2F)C1)C(=O)N[C@@H](CCCCN)C(=O)OC(C)(C)C (stereo not given in full)	0.0057	
COc1cccc(NC(=O)N2CCCC(C(=O)NC(C(=O)N[C@@H](CCCCN)C(=O)OC(C)(C)C)[C@@H](C)c3c[nH]c4ccccc34)C2)c1 (stereo not given in full)	0.009	
C[C@@H](c1c[nH]c2ccccc12)C(NC(=O)C1CCCN(S(=O)(=O)c2ccc(F)cc2)C1)C(=O)N[C@@H](CCCCN)C(=O)OC(C)(C)C (stereo not given in full)	0.011	
C[C@@H](c1c[nH]c2ccccc12)C(NC(=O)C1CCCN(Cc2ccc3ccccc3c2)C1)C(=O)N[C@@H](CCCCN)C(=O)OC(C)(C)C (stereo not given in full)	0.017	
COC(=O)[C@H](Cc1ccccc1)NC(=O)N1CCCC(C(=O)NC(C(=O)N[C@@H](CCCCN)C(=O)OC(C)(C)C)[C@@H](C)c2c[nH]c3ccccc23)C1 (stereo not given in full)	0.0086	
COc1cccc(CN2CCCC(C(=O)NC(C(=O)N[C@@H](CCCCN)C(=O)OC(C)(C)C)[C@@H](C)c3c[nH]c4ccccc34)C2)c1 (stereo not given in full)	0.01	
COc1ccc(S(=O)(=O)N2CCCC(C(=O)NC(C(=O)N[C@@H](CCCCN)C(=O)OC(C)(C)C)[C@@H](C)c3c[nH]c4ccccc34)C2)cc1OC (stereo not given in full)	0.023	
C[C@@H](c1c[nH]c2ccccc12)C(NC(=O)C1CCCN(S(=O)(=O)c2cccs2)C1)C(=O)N[C@@H](CCCCN)C(=O)OC(C)(C)C (stereo not given in full)	0.014	
C[C@@H](c1c[nH]c2ccccc12)C(NC(=O)C1CCCN(Cc2ccc(F)c(F)c2)C1)C(=O)N[C@@H](CCCCN)C(=O)OC(C)(C)C (stereo not given in full)	0.0029	
C[C@@H](c1c[nH]c2ccccc12)C(NC(=O)C1CCCN(C(=O)c2ccc3c(c2)OCO3)C1)C(=O)N[C@@H](CCCCN)C(=O)OC(C)(C)C (stereo not given in full)	0.036	
C[C@@H](c1c[nH]c2ccccc12)C(NC(=O)C1CCCN(Cc2ccccc2)C1)C(=O)N[C@@H](CCCCN)C(=O)OC(C)(C)C (stereo not given in full)	0.0046	
